{"source": "patent US6982157B1", "about": "“Drug combinations comprising (E)-7-[4-(4-fluorophenyl)-6-isopropyl-2-[methylsulfonyl)amino] pyrimidin-5-yl] (3r,5s) -3,5-dihydroxyhept-6-enoic acid and an inhibitor, inducer or substrate of p450 isoenzyme 3A4” (AstraZeneca AB, priority 1999, dated 2006)", "key": {"human hepatocytes": {"test_system": "human hepatocytes", "test": "Metabolism of [14C]-labelled Agent by human hepatocytes", "type": "in vitro ADME", "settings": "human hepatocytes in culture, 0-48 hours", "protocol": "Cultures were terminated with ethanol after 0, 6, 24 and 48 hours of incubation and stored at approximately −20° C. until analysed. The metabolic competence of the hepatocytes was confirmed at the time of incubation by examining their ability to metabolise [^14C]-ethoxycoumarin (25 μM); aliquots were removed into methanol at the same time points as for the test compound.\nFollowing incubation of [^14C]-ZD4522 with hepatocytes, metabolite profiles were generated by High Performance Liquid Chromatography (HPLC). The ability of hepatocytes to metabolise [^14C]-ethoxycoumarin was confirmed by HPLC."}, "[1]": {"test_system": "hypercholesterolaemia in patients following transplantation", "test": "Clinical study of the Agent in post-transplant patients on immunosuppressive therapy", "type": "in vivo, human", "protocol": "Trial Design This is a multicenter, randomized, double-blind, parallel-group clinical trial. […] Patients who have had their dose titrated up to 40 mg may have their dose titrated back down to 20 mg at the investigator's discretion."}, "[2]": {"test_system": "mixed hyperlipidaemia and hypertriglyceridaemia in patients", "test": "Clinical study of the Agent dosed with a fibrate drug", "type": "in vivo, human"}, "[3]": {"test_system": "heart transplant patients", "settings": "cited from earlier work"}, "patients": {"test_system": "patients", "settings": "cited from earlier work"}, "[4]": {"test_system": "cytochrome P450 enzymes, in particular 3A4", "settings": "cited from earlier work"}, "[5]": {"settings": "patients undertaking immunosuppressive therapy"}}, "data": [{"smiles": "CC(C)c1nc(N(C)S(C)(=O)=O)nc(-c2ccc(F)cc2)c1/C=C/[C@@H](O)C[C@@H](O)CC(=O)O", "note": "[Agent, (E)-7-[4-(4-fluorophenyl)-6-isopropyl-2-[methyl(methylsulfonyl)amino]pyrimidin-5-yl](3R,5S)-3,5-dihydroxyhept-6-enoic acid]", "values": [{"measurement": "metabolism of the Agent by whole hepatocytes", "setting": "human hepatocytes", "value": "not significantly metabolised"}, {"measurement": "treating hypercholesterolaemia in patients following transplantation", "setting": "[1]; patients following transplantation", "value": "extremely effective"}, {"measurement": "level of cholesterol lowering compared with what was previously achieved, such as by pravastatin", "setting": "[1]; [5]", "value": "much higher levels of cholesterol lowering"}, {"measurement": "side effects of concomitant dosing of the Agent and immunosuppressive drug(s)", "setting": "[1]; [5]", "value": "without any clinically significant side effects"}, {"measurement": "treating mixed hyperlipidaemia and hypertriglyceridaemia when combined with a fibrate drug", "setting": "[2]; combined with a fibrate drug", "value": "extremely effective"}, {"measurement": "side effects of concomitant dosing of the Agent and the fibrate drug", "setting": "[2]; patients also taking a fibrate drug", "value": "without any clinically significant side effects"}]}, {"smiles": "CC[C@H](C)C(=O)O[C@H]1C[C@@H](C)C=C2C=C[C@H](C)[C@H](CC[C@@H]3C[C@@H](O)CC(=O)O3)[C@H]21", "note": "[Lovastatin, lovastatin]", "values": [{"measurement": "cholesterol levels in heart transplant patients", "setting": "[3]", "value": "lower cholesterol levels"}]}, {"smiles": "CC(C)c1c(C(=O)Nc2ccccc2)c(-c2ccccc2)c(-c2ccc(F)cc2)n1CC[C@@H](O)C[C@@H](O)CC(=O)O", "note": "[atorvastatin]", "values": [{"measurement": "patients with clinically important (>3 times ULN) elevations in serum ALT", "setting": "patients; low doses of atorvastatin, European SmPC", "value": 0.8, "unit": "%"}]}, {"smiles": "Cc1ccc(C)c(OCCCC(C)(C)C(=O)O)c1", "note": "[gemfibrozil]", "values": [{"measurement": "patients with myositis-flu like syndrome", "setting": "patients; gemfibrozil when a statin is also administered", "value": 5, "unit": "%"}]}, {"smiles": "CC[C@H](C)C(=O)O[C@H]1C[C@H](O)C=C2C=C[C@H](C)[C@H](CC[C@@H](O)C[C@@H](O)CC(=O)O)[C@H]21", "note": "[pravastatin]", "values": [{"measurement": "rate of metabolism by P450", "setting": "[4]", "value": "sufficiently low"}]}]}
